Results as given in the supplement of paper PMC10307832.

Compound: CC1=C(C(=NN1)C)CC2=C(C3=C(S2)N(C(=O)N(C3=O)C)CC(C)C)C(=O)N4C[C@@H](CO4)O + O=C(CCCCCCC(=O)Nc1ccccc1)NO [Vorinostat] (partner 1 µM)
Test: relative viability (nuclei count vs DMSO), 5 days (fraction); higher = more cells survive
Details: first compound 0.25 µM
In short: (§1)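 Values are medians from duplicate plates. Each reflects relative viability, defined as the nuclei count of treated wells over that of vehicle wells. Lung cancer cell lines in 1536-well plates were pin-tool dosed one day after seeding with one drug alone or with a fixed anchor-drug dose plus five library-drug doses (not always all listed) in √10 steps, then fixed, stained and imaged at 4× after 5 days.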

HCC-78 gave a relative viability of 0.439.

Compound: Cc1ccccc1C(C(=O)NC1CCCCC1)N(C(=O)Cn1ccnc1C)c1cccc(F)c1 [IDH-C35] + Cc1cc(Nc2cc(N3CCN(C)CC3)nc(Sc3ccc(NC(=O)C4CC4)cc3)n2)n[nH]1 [Tozasertib] (partner 0.1 µM)
Test: as above
Details: first compound 0.08 µM
In short: as §1

Point of comparison: LCLC-103H, relative viability 0.554. Against it:
- NCI-H522 — lower, 0.545
- NCI-H1623 — lower, 0.414
- NCI-H727 — lower, 0.49
- NCI-H1650 — lower, 0.407
- NCI-H1993 — lower, 0.545
- SW 1573 — lower, 0.187
- NCI-H838 — lower, 0.249
- NCI-H520 — lower, 0.327
- NCI-H2126 — higher, 0.81
- EMC-BAC-2 — lower, 0.304
- NCI-H2085 — higher, 0.793
- HCC-366 — lower, 0.109
- NCI-H1666 — higher, 0.585
- NCI-H596 — higher, 1.01
- LK-2 — lower, 0.157
- NCI-H2087 — lower, 0.196
- NCI-H2342 — lower, 0.482
- SK-MES-1 — higher, 0.927
- H3255 — higher, 0.59
- COR-L23 — lower, 0.253
- COR-L 105 — lower, 0.351
- LOU-NH91 — higher, 0.739
- ChaGo-K-1 — lower, 0.22
- NCI-H2170 — higher, 0.781
- NCI-H2405 — higher, 0.735
- HOP-62 — lower, 0.394
- HCC-44 — higher, 1.06
- SW 900 — lower, 0.51
- LU99A — lower, 0.281
- NCI-H1648 — higher, 0.567
- HCC-78 — lower, 0.403

Same assay, conditions: first compound 0.253 µM

Point of comparison: NCI-H520, relative viability 0.427. Against it:
- NCI-H522 — higher, 0.543
- NCI-H1623 — lower, 0.423
- NCI-H727 — higher, 0.61
- NCI-H1650 — lower, 0.393
- NCI-H1993 — higher, 0.614
- SW 1573 — lower, 0.14
- NCI-H838 — lower, 0.276
- LCLC-103H — higher, 0.435
- NCI-H2126 — higher, 0.812
- EMC-BAC-2 — lower, 0.298
- NCI-H2085 — higher, 0.845
- HCC-366 — lower, 0.128
- NCI-H1666 — higher, 0.752
- NCI-H596 — higher, 0.866
- LK-2 — lower, 0.197
- NCI-H2087 — lower, 0.23
- NCI-H2342 — higher, 0.54
- SK-MES-1 — higher, 0.86
- H3255 — higher, 0.6
- COR-L23 — lower, 0.174
- COR-L 105 — lower, 0.313
- LOU-NH91 — higher, 0.69
- ChaGo-K-1 — lower, 0.231
- NCI-H2170 — higher, 0.724
- NCI-H2405 — higher, 0.776
- HOP-62 — lower, 0.368
- HCC-44 — higher, 0.906
- SW 900 — higher, 0.645
- LU99A — lower, 0.255
- NCI-H1648 — higher, 0.499
- HCC-78 — lower, 0.363

Same assay, conditions: first compound 0.8 µM

Point of comparison: SW 1573, relative viability 0.239. Against it:
- NCI-H522 — higher, 0.589
- NCI-H1623 — higher, 0.464
- NCI-H727 — higher, 0.647
- NCI-H1650 — higher, 0.378
- NCI-H1993 — higher, 0.551
- NCI-H838 — higher, 0.292
- LCLC-103H — higher, 0.47
- NCI-H520 — higher, 0.54
- NCI-H2126 — higher, 0.865
- EMC-BAC-2 — higher, 0.314
- NCI-H2085 — higher, 0.751
- HCC-366 — lower, 0.179
- NCI-H1666 — higher, 0.619
